Assay results: patent US20080039442A1, “Compounds With Kv4 Ion Channel Activity” (Devgen NV, priority 2004, published 2008)

Columns and labels:
hERG potassium channel = hERG potassium channel (Homo sapiens, UniProt Q12809); experiment: Whole cell patch clamp, HEK 293 T-REx HERG cells; conditions: 10 μM
Kv1.5 potassium channel = molecular target: T1, Kv1.5 potassium channel (Homo sapiens, UniProt P22460); experiment: Patch clamp, CHO cells stably expressing Kv1.5; format: cell-based
T1 construct: expressed in transfected cells
Procedure: The cDNA coding for Kv1.5 (GenBank Acc. No. M55513) was cloned into the pcDNA6-vector (Invitrogen, Leek, Netherlands). A C-terminal epitope-tag was introduced via PCR. The plasmid was sequenced and subsequently introduced into cells. Clonal cell lines stably expressing the Kv1.5 channel were established. Expression of protein was analysed by means of immunofluorescence using antibodies directed against the epitope-tag. The functional expression of the ion channels was validated electrophysiologically.
The experiments were performed using CHO cells stably expressing the Kv 1.5 potassium channel.
Cells were grown at 37° C. and 5% CO2 in 25 ml flasks (Greiner Bioone, Cellstar, Cat. No. 690160) in 6 ml MEM ALPHA Medium (Sigma, Taufkirchen, Germany, Cat No M8042) supplemented with 10% (v/v) heat inactivated fetal calf serum (Sigma, Cat. No. F9665), 1% (v/v) P/S/G-solution (Sigma, Cat. No. G6784) and G-418 (750 μg per millilitre medium; Sigma, Germany, Cat. No. A1720; 50 mg/ml in water, Sigma, Germany, Cat. No. W3500).
From a HP of −60 mV cells were hyperpolarised for 100 ms to −70 mV, followed by a 500 ms depolarisation to +50 mV. The current amplitude at the end of the test pulse to +50 mV was used for the analysis. Pulse cycling rate was 10 s (0.1 Hz).
The application protocol of test compounds is depicted in FIG. 4. The first 14 stimuli were required to achieve steady state of the current amplitude. Unspecific current reduction was calculated and served for correcting procedures during data analysis. After the 14th stimulus the test compound application was started (indicated by an arrow) via teflon and silicone tubings and was assumed to reach the cell after 6 additional stimuli. The perfusion is adjusted by using a defined drop rate of 10 drops per 10-12 s. Up to three concentrations were applied successively to one cell followed by a wash period of 5 minutes. Total number of stimuli was 140. Effect of the test compound was analysed between stimulus nos. 21 and 50 (5 min., long dashed line) for the first concentration, between stimulus nos. 51 and 80 (5 min., short dashed line) for an additional 5 minutes. If the cell was still stable, a wash was added afterwards. Start of test compound application at the given concentration is indicated by arrows. Number of stimuli of each single episode are shown in the protocol of FIG. 4.
Vehicle (DMSO) control experiments were performed during study period and under identical conditions to verify the stability of current over time and to value cell condition.
The effects of the test compounds were investigated at one concentration (2 or 1 μM) on the Kv1.5-mediated potassium channel.

[1] = concentration cell empty (text: 2 or 1 μM)

T1 sequence (P22460 whole entry): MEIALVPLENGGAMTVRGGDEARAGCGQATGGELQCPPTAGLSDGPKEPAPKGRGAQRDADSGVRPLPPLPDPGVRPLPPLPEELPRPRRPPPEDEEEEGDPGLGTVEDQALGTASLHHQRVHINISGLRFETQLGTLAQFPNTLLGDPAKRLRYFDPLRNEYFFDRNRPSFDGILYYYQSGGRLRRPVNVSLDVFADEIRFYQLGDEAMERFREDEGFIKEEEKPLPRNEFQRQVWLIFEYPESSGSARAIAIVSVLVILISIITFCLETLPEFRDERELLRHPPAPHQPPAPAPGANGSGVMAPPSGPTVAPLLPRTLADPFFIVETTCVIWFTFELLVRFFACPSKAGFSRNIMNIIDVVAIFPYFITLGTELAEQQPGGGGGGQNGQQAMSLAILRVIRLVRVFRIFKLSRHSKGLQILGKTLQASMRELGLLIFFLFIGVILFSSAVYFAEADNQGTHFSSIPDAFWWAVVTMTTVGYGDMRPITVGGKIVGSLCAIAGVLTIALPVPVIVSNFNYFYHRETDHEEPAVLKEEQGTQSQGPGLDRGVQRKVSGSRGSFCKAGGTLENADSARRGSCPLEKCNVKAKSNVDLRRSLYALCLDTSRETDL
Sequence of hERG potassium channel (Q12809 whole entry): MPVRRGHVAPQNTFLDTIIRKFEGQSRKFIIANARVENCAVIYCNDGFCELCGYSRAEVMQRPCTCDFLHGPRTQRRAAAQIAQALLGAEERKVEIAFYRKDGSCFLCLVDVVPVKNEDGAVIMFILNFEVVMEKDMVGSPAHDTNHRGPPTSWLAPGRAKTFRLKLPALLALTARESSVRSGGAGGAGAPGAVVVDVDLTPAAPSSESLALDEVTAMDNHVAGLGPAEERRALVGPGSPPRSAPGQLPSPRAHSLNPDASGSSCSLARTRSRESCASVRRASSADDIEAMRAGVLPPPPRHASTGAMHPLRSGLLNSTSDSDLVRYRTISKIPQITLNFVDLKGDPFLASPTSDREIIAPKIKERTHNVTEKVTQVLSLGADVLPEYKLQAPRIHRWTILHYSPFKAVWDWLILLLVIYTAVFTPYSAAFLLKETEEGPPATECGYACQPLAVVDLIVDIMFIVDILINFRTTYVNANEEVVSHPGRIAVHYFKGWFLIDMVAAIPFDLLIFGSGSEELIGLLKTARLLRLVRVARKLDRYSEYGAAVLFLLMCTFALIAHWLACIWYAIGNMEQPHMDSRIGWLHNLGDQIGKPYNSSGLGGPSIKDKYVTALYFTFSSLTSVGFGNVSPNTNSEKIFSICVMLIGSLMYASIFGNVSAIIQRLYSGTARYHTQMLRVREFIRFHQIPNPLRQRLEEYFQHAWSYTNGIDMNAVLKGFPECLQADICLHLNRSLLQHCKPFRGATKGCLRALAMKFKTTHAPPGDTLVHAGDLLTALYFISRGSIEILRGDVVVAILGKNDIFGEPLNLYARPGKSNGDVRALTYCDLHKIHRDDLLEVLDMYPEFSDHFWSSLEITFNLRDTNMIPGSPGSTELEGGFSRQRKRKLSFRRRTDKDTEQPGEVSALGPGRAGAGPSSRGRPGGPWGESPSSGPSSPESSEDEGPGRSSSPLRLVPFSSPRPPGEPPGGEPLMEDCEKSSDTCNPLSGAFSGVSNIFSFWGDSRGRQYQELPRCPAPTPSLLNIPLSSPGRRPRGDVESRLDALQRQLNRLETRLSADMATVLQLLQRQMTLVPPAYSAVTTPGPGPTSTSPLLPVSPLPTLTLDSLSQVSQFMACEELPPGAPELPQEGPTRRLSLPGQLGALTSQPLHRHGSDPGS

melting point | Relative remaining current (mean after 8-10 min) (Kv1.5 potassium channel; [1]) | Relative remaining current (mean after 8-10 min) (Kv1.5 potassium channel; 2 μM, fraction, % in brackets) | Relative remaining current (mean after 5 min) (Kv1.5 potassium channel; 2 μM, fraction, % in brackets) | Compound | hERG (%) (hERG potassium channel)
134 to 136.5 °C | 89% |  |  | Cc1c(C(=O)NCc2ccc(F)c(C(F)(F)F)c2)sc2ccc(Cl)cc12 [Compound 107, 5-chloro-3-methyl-benzo[b]thiophene-2-carboxylic acid 4-fluoro-3-trifluoromethyl-benzylamide] | 38%
101.3 to 106.3 °C | 82% |  |  | O=C(NCc1ccc(OC(F)(F)F)cc1)c1cc2cc(Cl)ccc2o1 [Compound 89, 5-chloro-benzofuran-2-carboxylic acid 4-trifluoromethoxy-benzylamide] | 39%
 |  | 0.66 (66%) | 0.88 (88%) | 5-chloro-benzofuran-2- carboxylic acid 2,4- dimethoxy- benzylamide [Compound 2] | 
